Assay results published in US6737383B1, “Herbicidal oxadiazolidines” (priority 1999, dated 2004).

Experiments:
rape = assay: Test B pre/postemergence rape; format: in vivo, Brassica napus; settings: for Plant response rating, Rape: scale of 0 to 10 where 0 is no effect and 10 is complete control
Method in brief: (§1)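 Response is a visual 0-to-10 score relative to untreated plants, where 0 means no effect and 10 means complete control, taken twelve to sixteen days after application. Treatments went onto soil at planting and onto foliage of 1- to 4-leaf plants, using a surfactant-containing non-phytotoxic solvent.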

wild oat = assay: Test B pre/postemergence wild oat; format: in vivo, Avena fatua; settings: for Plant response rating, Wild oats: scale of 0 to 10 where 0 is no effect and 10 is complete control
Method in brief: as §1

bedstraw = assay: Test B pre/postemergence bedstraw; format: in vivo, Galium aparine; settings: Preemergence; for Plant response rating, Bedstraw: scale of 0 to 10 where 0 is no effect and 10 is complete control; for Bedstraw plant response rating: scale 0 to 10, 0 is no effect, 10 is complete control
Method in brief: as §1

rice = assay: Test B flood test rice; format: in vivo, Oryza sativa
Method in brief: (§2)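 Read-out is a visual response score from 0 (no effect) to 10 (complete control), assigned by comparison with untreated controls. Treatment was applied at the 2-leaf stage, and plants stayed in the greenhouse for twelve to sixteen days before scoring.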

pigweed = assay: Test B pre/postemergence pigweed; format: in vivo, Amaranthus retroflexus; settings: for Plant response rating, Redroot pigweed: scale of 0 to 10 where 0 is no effect and 10 is complete control
Method in brief: as §1

blackgrass = assay: Test B pre/postemergence blackgrass; format: in vivo, Alopecurus myosuroides
Method in brief: as §1

corn = assay: Test B pre/postemergence corn; format: in vivo, Zea mays
Method in brief: as §1

smallflower flatsedge = assay: Test B flood test smallflower flatsedge; format: in vivo, Cyperus difformis
Method in brief: as §2

bamyardgrass = assay: Test B flood test barnyardgrass; format: in vivo, Echinochloa crus-galli
Method in brief: as §2

sugar beet = assay: Test B pre/postemergence sugar beet; format: in vivo, Beta vulgaris; settings: for Plant response rating, Sugarbeets: scale of 0 to 10 where 0 is no effect and 10 is complete control
Method in brief: as §1

velvetleaf = assay: Test B pre/postemergence velvetleaf; format: in vivo, Abutilon theophrasti; settings: for Plant response rating, Velvetleaf: scale of 0 to 10 where 0 is no effect and 10 is complete control
Method in brief: as §1

giant foxtail = assay: Test B pre/postemergence giant foxtail; format: in vivo, Setaria faberii
Method in brief: as §1

surinam grass = assay: Test B pre/postemergence surinam grass; format: in vivo, Brachiaria decumbens
Method in brief: as §1

crabgrass = assay: Test B pre/postemergence crabgrass; format: in vivo, Digitaria sanguinalis
Method in brief: as §1

morningglory = assay: Test B pre/postemergence morningglory; format: in vivo, Ipomoea hederacea; settings: for Plant response rating, Morningglory: scale of 0 to 10 where 0 is no effect and 10 is complete control
Method in brief: as §1

cocklebur = assay: Test B pre/postemergence cocklebur; format: in vivo, Xanthium strumarium
Method in brief: as §1

[1] = Postemergence, Rate 250 g/ha, scale 0 to 10
[2] = Preemergence, Rate 250 g/ha, scale 0 to 10, 0 is no effect, 10 is complete control
[3] = Preemergence, Rate 500 g/ha, scale 0 to 10, 0 is no effect, 10 is complete control
[4] = Rate 62 g/ha, Postemergence, scale 0 to 10, 0 no effect, 10 complete control
[5] = Rate 125 g/ha, Postemergence, scale 0 to 10, 0 is no effect, 10 is complete control
[6] = Rate 62 g/ha, flood test species, Pre-emergence, visual evaluation after twelve to sixteen days
[7] = Rate 125 g/ha, under heading Pre-emergence, flood test species, visual evaluation after twelve to sixteen days
[8] = Rate 250 g/ha, Pre-emergence (flood test species), scale 0 to 10, 0 is no effect, 10 is complete control
[9] = Rate 500 g/ha, Pre-emergence, flood test species, scale 0 to 10 (0 no effect, 10 complete control)
[10] = Postemergence, Rate 500 g/ha, scale of 0 to 10 where 0 is no effect and 10 is complete control
[11] = Preemergence, Rate 62 g/ha, scale of 0 to 10 where 0 is no effect and 10 is complete control
[12] = Preemergence, Rate 125 g/ha, scale of 0 to 10 where 0 is no effect and 10 is complete control

SMILES: CC(C)N(C(=O)n1oc(=O)n(COCC[Si](C)(C)C)c1=O)c1ccc(Cl)cc1 [Compound 467]
- Rape plant response rating (rape; [1]): 4
- Plant response rating, Rape (rape; Preemergence, Rate 62 g/ha): 4
- Plant response rating, Rape (rape; Preemergence, Rate 125 g/ha): 7
- Rape plant response rating (rape; [2]): 7
- Rape plant response rating (rape; [3]): 7
- Rape plant response rating (rape; [4]): 0
- Rape plant response rating (rape; [5]): 0
- Wild oats plant response rating (wild oat; [1]): 2
- Plant response rating, Wild oats (wild oat; Preemergence, Rate 62 g/ha): 0
- Plant response rating, Wild oats (wild oat; Preemergence, Rate 125 g/ha): 0
- Wild oats plant response rating (wild oat; [2]): 0
- Wild oats plant response rating (wild oat; [3]): 0
- Wild oats plant response rating (wild oat; [4]): 0
- Wild oats plant response rating (wild oat; [5]): 0
- Plant response rating, Bedstraw (bedstraw; Rate 62 g/ha): 0
- Plant response rating, Bedstraw (bedstraw; Rate 125 g/ha): 0
- Bedstraw plant response rating (bedstraw; Rate 250 g/ha): 0
- Bedstraw plant response rating (bedstraw; Rate 500 g/ha): 0
- Plant response rating, Rice (0 to 10 scale, 0 is no effect, 10 is complete control) (rice; [6]): 0
- Rice plant response rating (0 to 10 scale, 0 is no effect, 10 is complete control) (rice; [7]): 0
- Rice plant response rating (rice; [8]): 0
- Rice plant response rating (rice; [9]): 0
- Redroot pigweed plant response rating (pigweed; [1]): 3
- Plant response rating, Redroot pigweed (pigweed; Preemergence, Rate 62 g/ha): 7
- Plant response rating, Redroot pigweed (pigweed; Preemergence, Rate 125 g/ha): 7
- Redroot pigweed plant response rating (pigweed; [2]): 7
- Redroot pigweed plant response rating (pigweed; [3]): 9
- Redroot pigweed plant response rating (pigweed; [5]): 0
- Blackgrass plant response rating (blackgrass; [1]): 0
- Blackgrass plant response rating (blackgrass; [10]): 7
- Plant response rating, Blackgrass (blackgrass; [11]): 0
- Plant response rating, Blackgrass (blackgrass; [12]): 2
- Blackgrass plant response rating (blackgrass; [2]): 2
- Blackgrass plant response rating (blackgrass; [3]): 2
- Blackgrass plant response rating (blackgrass; [4]): 0
- Blackgrass plant response rating (blackgrass; [5]): 0
- Corn plant response rating (corn; [1]): 0
- Corn plant response rating (corn; [10]): 0
- Plant response rating, Corn (corn; [11]): 0
- Plant response rating, Corn (corn; [12]): 0
- Corn plant response rating (corn; [2]): 0
- Corn plant response rating (corn; [3]): 0
- Corn plant response rating (corn; [4]): 0
- Corn plant response rating (corn; [5]): 0
- Plant response rating, S. Flatsedge (0 to 10 scale, 0 is no effect, 10 is complete control) (smallflower flatsedge; [6]): 0
- S. Flatsedge plant response rating (0 to 10 scale, 0 is no effect, 10 is complete control) (smallflower flatsedge; [7]): 0
- S. Flatsedge plant response rating (smallflower flatsedge; [8]): 0
- S. Flatsedge plant response rating (smallflower flatsedge; [9]): 0
- Plant response rating, Barnyardgrass (0 to 10 scale, 0 is no effect, 10 is complete control) (bamyardgrass; [6]): 0
- Barnyardgrass plant response rating (0 to 10 scale, 0 is no effect, 10 is complete control) (bamyardgrass; [7]): 0
- Barnyardgrass plant response rating (bamyardgrass; [8]): 0
- Barnyardgrass plant response rating (bamyardgrass; [9]): 0
- Sugarbeets plant response rating (sugar beet; [1]): 4
- Plant response rating, Sugarbeets (sugar beet; Preemergence, Rate 62 g/ha): 1
- Plant response rating, Sugarbeets (sugar beet; Preemergence, Rate 125 g/ha): 1
- Sugarbeets plant response rating (sugar beet; [2]): 1
- Sugarbeets plant response rating (sugar beet; [3]): 2
- Sugarbeets plant response rating (sugar beet; [4]): 0
- Sugarbeets plant response rating (sugar beet; [5]): 2
- Velvetleaf plant response rating (velvetleaf; [1]): 0
- Plant response rating, Velvetleaf (velvetleaf; Preemergence, Rate 62 g/ha): 0
- Plant response rating, Velvetleaf (velvetleaf; Preemergence, Rate 125 g/ha): 0
- Velvetleaf plant response rating (velvetleaf; [2]): 0
- Velvetleaf plant response rating (velvetleaf; [3]): 1
- Velvetleaf plant response rating (velvetleaf; [4]): 0
- Velvetleaf plant response rating (velvetleaf; [5]): 0
- Giant foxtail plant response rating (giant foxtail; [1]): 2
- Giant foxtail plant response rating (giant foxtail; [10]): 4
- Plant response rating, Giant foxtail (giant foxtail; [11]): 0
- Plant response rating, Giant foxtail (giant foxtail; [12]): 7
- Giant foxtail plant response rating (giant foxtail; [2]): 9
- Giant foxtail plant response rating (giant foxtail; [3]): 9
- Giant foxtail plant response rating (giant foxtail; [4]): 0
- Giant foxtail plant response rating (giant foxtail; [5]): 0
- B. signalgrass plant response rating (surinam grass; Postemergence, Rate 250 g/ha, scale 0 to 10, 0 no effect, 10 complete control): 0
- B. signalgrass plant response rating (surinam grass; [10]): 0
- Plant response rating, B. signalgrass (surinam grass; [11]): 0
- Plant response rating, B. signalgrass (surinam grass; [12]): 0
- B. signalgrass plant response rating (surinam grass; [2]): 0
- B. signalgrass plant response rating (surinam grass; [3]): 2
- B. signalgrass plant response rating (surinam grass; [4]): 0
- B. signalgrass plant response rating (surinam grass; [5]): 0
- Crabgrass plant response rating (crabgrass; [1]): 0
- Crabgrass plant response rating (crabgrass; [10]): 6
- Plant response rating, Crabgrass (crabgrass; [11]): 5
- Plant response rating, Crabgrass (crabgrass; [12]): 6
- Crabgrass plant response rating (crabgrass; [2]): 6
- Crabgrass plant response rating (crabgrass; [3]): 8
- Crabgrass plant response rating (crabgrass; [4]): 0
- Crabgrass plant response rating (crabgrass; [5]): 0
- Morningglory plant response rating (morningglory; [1]): 7
- Plant response rating, Morningglory (morningglory; Preemergence, Rate 62 g/ha): 0
- Plant response rating, Morningglory (morningglory; Preemergence, Rate 125 g/ha): 0
- Morningglory plant response rating (morningglory; [2]): 0
- Morningglory plant response rating (morningglory; [3]): 0
- Morningglory plant response rating (morningglory; [4]): 3
- Morningglory plant response rating (morningglory; [5]): 7
- Cocklebur plant response rating (cocklebur; [1]): 0
- Cocklebur plant response rating (cocklebur; [10]): 5
- Plant response rating, Cocklebur (cocklebur; [11]): 2
- Plant response rating, Cocklebur (cocklebur; [12]): 4
- Cocklebur plant response rating (cocklebur; [2]): 6
- Cocklebur plant response rating (cocklebur; [3]): 6
- Cocklebur plant response rating (cocklebur; [4]): 0
- Cocklebur plant response rating (cocklebur; [5]): 0
